Test system: HeLa cells
Format: cell-based
Conditions: viruses generated in HEK293T cells with the named serum or protease inhibitor, Table 3; TU/ml

Row | Compound | Titer × 10^9
1 | COc1ccc(S(=O)(=O)N(Cc2cccnc2)[C@@H](C(=O)NO)C(C)C)cc1 [CGS 27023A] | 3.4 ± 1.4 × 10^9
2 | TIMP-1: metallo proteinase inhibitor added to medium during virus generation | 6.3 × 10^9

From patent US8912315B2, “Purkinje cell-tropic viral vector” (Japan Science and Technology Agency, priority 2006, dated 2014)
